PubChem BioAssay AID2060882 (Molecular Pharmacology Branch, DTP, NCI, 2025)

System: 898857-211-R-J1-PDC complex spheroids, growth % test/control
Assay: Anticancer human tumor 898857-211-R-J1-PDC patient-derived melanoma cell line growth inhibition [RAS]
Conditions: for IC50: curve of first compound; for viability, T/C: stronger effect = lower value
Outline: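 Tumour cells grown as complex spheroids with HUVEC endothelial cells and mesenchymal stem cells, treated with RAS pathway inhibitor combinations. Each agent spans half-log steps from near clinical Cmax, or 10 microM where Cmax is unknown.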

[1] = second compound 0.000949 µM, first compound 0.0316 µM
[2] = second compound 0.000949 µM, first compound 0.1 µM
[3] = second compound 0.000949 µM, first compound 0.316 µM
[4] = second compound 0.000949 µM, first compound 1 µM
[5] = second compound 0.000949 µM, first compound 3.16 µM
[6] = second compound 0.000949 µM, first compound 10 µM
[7] = second compound 0.003 µM, first compound 0.0316 µM
[8] = second compound 0.003 µM, first compound 0.1 µM
[9] = second compound 0.003 µM, first compound 0.316 µM
[10] = second compound 0.003 µM, first compound 1 µM
[11] = second compound 0.003 µM, first compound 3.16 µM
[12] = second compound 0.003 µM, first compound 10 µM
[13] = second compound 0.00949 µM, first compound 0.0316 µM
[14] = second compound 0.00949 µM, first compound 0.1 µM
[15] = second compound 0.00949 µM, first compound 0.316 µM
[16] = second compound 0.00949 µM, first compound 1 µM
[17] = second compound 0.00949 µM, first compound 3.16 µM
[18] = second compound 0.00949 µM, first compound 10 µM
[19] = second compound 0.03 µM, first compound 0.0316 µM
[20] = second compound 0.03 µM, first compound 0.1 µM
[21] = second compound 0.03 µM, first compound 0.316 µM
[22] = second compound 0.03 µM, first compound 1 µM
[23] = second compound 0.03 µM, first compound 3.16 µM
[24] = second compound 0.03 µM, first compound 10 µM
[25] = second compound 0.0949 µM, first compound 0.0316 µM
[26] = second compound 0.0949 µM, first compound 0.1 µM
[27] = second compound 0.0949 µM, first compound 0.316 µM
[28] = second compound 0.0949 µM, first compound 1 µM
[29] = second compound 0.0949 µM, first compound 3.16 µM
[30] = second compound 0.0949 µM, first compound 10 µM
[31] = second compound 0.3 µM, first compound 0.0316 µM
[32] = second compound 0.3 µM, first compound 0.1 µM
[33] = second compound 0.3 µM, first compound 0.316 µM
[34] = second compound 0.3 µM, first compound 1 µM
[35] = second compound 0.3 µM, first compound 3.16 µM
[36] = second compound 0.3 µM, first compound 10 µM
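Note: spheroids exposed to compound for seven days before readout.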
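Throughout, for viability, T/C: 100% = DMSO vehicle control wells.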

CC(C)NCC(C(=O)N1CCN(c2ncnc3c2C(C)CC3O)CC1)c1ccc(Cl)cc1 (stereo not drawn) + CCn1c(-c2cc(N3CCN(C)CC3)cnc2C(C)OC)c2c3cc(ccc31)-c1csc(n1)CC(NC(=O)C1CC1C)C(=O)N1CCCC(N1)C(=O)OCC(C)(C)C2
IC50 (second compound 0.000949 µM): > 10000 nM | IC50 (second compound 0.003 µM): 7540 nM | IC50 (second compound 0.00949 µM): 7680 nM | IC50 (second compound 0.03 µM): 6370 nM | IC50 (second compound 0.0949 µM): 8160 nM | IC50 (second compound 0.3 µM): 6160 nM | viability, T/C [1]: 105% | viability, T/C [2]: 105% | viability, T/C [3]: 103% | viability, T/C [4]: 76.7% | viability, T/C [5]: 58.6% | viability, T/C [6]: 50.5% | viability, T/C [7]: 102% | viability, T/C [8]: 106% | viability, T/C [9]: 93.5% | viability, T/C [10]: 82.1% | viability, T/C [11]: 63.3% | viability, T/C [12]: 45.6% | viability, T/C [13]: 85.4% | viability, T/C [14]: 101% | viability, T/C [15]: 82% | viability, T/C [16]: 82% | viability, T/C [17]: 61.4% | viability, T/C [18]: 46.6% | viability, T/C [19]: 94% | viability, T/C [20]: 109% | viability, T/C [21]: 96% | viability, T/C [22]: 75.7% | viability, T/C [23]: 61.2% | viability, T/C [24]: 43.5% | viability, T/C [25]: 99.4% | viability, T/C [26]: 107% | viability, T/C [27]: 104% | viability, T/C [28]: 79.6% | viability, T/C [29]: 69.1% | viability, T/C [30]: 45.6% | viability, T/C [31]: 99.9% | viability, T/C [32]: 97.2% | viability, T/C [33]: 86.2% | viability, T/C [34]: 91.8% | viability, T/C [35]: 63.9% | viability, T/C [36]: 39.8%

CC(C)n1nc(-c2ccc3oc(N)nc3c2)c2c(N)ncnc21 + CCn1c(-c2cc(N3CCN(C)CC3)cnc2C(C)OC)c2c3cc(ccc31)-c1csc(n1)CC(NC(=O)C1CC1C)C(=O)N1CCCC(N1)C(=O)OCC(C)(C)C2
IC50 (second compound 0.000949 µM): 20.5 nM | IC50 (second compound 0.003 µM): 19.3 nM | IC50 (second compound 0.00949 µM): 17.3 nM | IC50 (second compound 0.03 µM): 13.7 nM | IC50 (second compound 0.0949 µM): 18.2 nM | IC50 (second compound 0.3 µM): 14.9 nM | viability, T/C (second compound 0.000949 µM, first compound 0.000316 µM): 98% | viability, T/C (second compound 0.000949 µM, first compound 0.001 µM): 82.6% | viability, T/C (second compound 0.000949 µM, first compound 0.00316 µM): 89.9% | viability, T/C (second compound 0.000949 µM, first compound 0.01 µM): 63.3% | viability, T/C [1]: 41.1% | viability, T/C [2]: 16.7% | viability, T/C (second compound 0.003 µM, first compound 0.000316 µM): 100% | viability, T/C (second compound 0.003 µM, first compound 0.001 µM): 92.8% | viability, T/C (second compound 0.003 µM, first compound 0.00316 µM): 86.5% | viability, T/C (second compound 0.003 µM, first compound 0.01 µM): 69.3% | viability, T/C [7]: 35.6% | viability, T/C [8]: 14.1% | viability, T/C (second compound 0.00949 µM, first compound 0.000316 µM): 92% | viability, T/C (second compound 0.00949 µM, first compound 0.001 µM): 88.3% | viability, T/C (second compound 0.00949 µM, first compound 0.00316 µM): 80.2% | viability, T/C (second compound 0.00949 µM, first compound 0.01 µM): 63.5% | viability, T/C [13]: 35.4% | viability, T/C [14]: 15.7% | viability, T/C (second compound 0.03 µM, first compound 0.000316 µM): 97.4% | viability, T/C (second compound 0.03 µM, first compound 0.001 µM): 91.8% | viability, T/C (second compound 0.03 µM, first compound 0.00316 µM): 69.5% | viability, T/C (second compound 0.03 µM, first compound 0.01 µM): 57% | viability, T/C [19]: 35.2% | viability, T/C [20]: 12.4% | viability, T/C (second compound 0.0949 µM, first compound 0.000316 µM): 109% | viability, T/C (second compound 0.0949 µM, first compound 0.001 µM): 108% | viability, T/C (second compound 0.0949 µM, first compound 0.00316 µM): 79.5% | viability, T/C (second compound 0.0949 µM, first compound 0.01 µM): 64.6% | viability, T/C [25]: 38.5% | viability, T/C [26]: 15.1% | viability, T/C (second compound 0.3 µM, first compound 0.000316 µM): 103% | viability, T/C (second compound 0.3 µM, first compound 0.001 µM): 100% | viability, T/C (second compound 0.3 µM, first compound 0.00316 µM): 69.2% | viability, T/C (second compound 0.3 µM, first compound 0.01 µM): 56.2% | viability, T/C [31]: 40.2% | viability, T/C [32]: 12.7%

CC(Nc1ccc2c(c1)OCCn1cc(N3C(=O)OCC3C(F)F)nc1-2)C(N)=O (stereo not drawn) + CCn1c(-c2cc(N3CCN(C)CC3)cnc2C(C)OC)c2c3cc(ccc31)-c1csc(n1)CC(NC(=O)C1CC1C)C(=O)N1CCCC(N1)C(=O)OCC(C)(C)C2
IC50 (second compound 0.000949 µM): > 10000 nM | IC50 (second compound 0.003 µM): > 10000 nM | IC50 (second compound 0.00949 µM): 6620 nM | IC50 (second compound 0.03 µM): 9250 nM | IC50 (second compound 0.0949 µM): 9600 nM | IC50 (second compound 0.3 µM): 8390 nM | viability, T/C [1]: 102% | viability, T/C [2]: 90.3% | viability, T/C [3]: 96% | viability, T/C [4]: 73.8% | viability, T/C [5]: 66% | viability, T/C [6]: 53.2% | viability, T/C [7]: 93.4% | viability, T/C [8]: 95.7% | viability, T/C [9]: 83.6% | viability, T/C [10]: 76.4% | viability, T/C [11]: 73.3% | viability, T/C [12]: 52.2% | viability, T/C [13]: 82.5% | viability, T/C [14]: 80.4% | viability, T/C [15]: 80.2% | viability, T/C [16]: 73.5% | viability, T/C [17]: 63% | viability, T/C [18]: 42.7% | viability, T/C [19]: 103% | viability, T/C [20]: 91.5% | viability, T/C [21]: 80.9% | viability, T/C [22]: 72.6% | viability, T/C [23]: 68.5% | viability, T/C [24]: 45.5% | viability, T/C [25]: 106% | viability, T/C [26]: 85.1% | viability, T/C [27]: 95.3% | viability, T/C [28]: 80.5% | viability, T/C [29]: 67.8% | viability, T/C [30]: 48.1% | viability, T/C [31]: 98.3% | viability, T/C [32]: 99.3% | viability, T/C [33]: 84.2% | viability, T/C [34]: 71.7% | viability, T/C [35]: 66.1% | viability, T/C [36]: 46.4%

C[C@@H](NC(=O)c1ncnc(N)c1Cl)c1ncc(C(=O)Nc2cc(C(F)(F)F)c(Cl)cn2)s1 + CCn1c(-c2cc(N3CCN(C)CC3)cnc2C(C)OC)c2c3cc(ccc31)-c1csc(n1)CC(NC(=O)C1CC1C)C(=O)N1CCCC(N1)C(=O)OCC(C)(C)C2
IC50 (second compound 0.000949 µM): 1690 nM | IC50 (second compound 0.003 µM): 1340 nM | IC50 (second compound 0.00949 µM): 1300 nM | IC50 (second compound 0.03 µM): 1090 nM | IC50 (second compound 0.0949 µM): 1360 nM | IC50 (second compound 0.3 µM): 1150 nM | viability, T/C [1]: 131% | viability, T/C [2]: 98.4% | viability, T/C [3]: 85% | viability, T/C [4]: 59.8% | viability, T/C [5]: 38.7% | viability, T/C [6]: 20% | viability, T/C [7]: 106% | viability, T/C [8]: 109% | viability, T/C [9]: 71% | viability, T/C [10]: 55.2% | viability, T/C [11]: 40.7% | viability, T/C [12]: 22% | viability, T/C [13]: 107% | viability, T/C [14]: 99.5% | viability, T/C [15]: 83.6% | viability, T/C [16]: 53.7% | viability, T/C [17]: 33.9% | viability, T/C [18]: 21.2% | viability, T/C [19]: 107% | viability, T/C [20]: 99.3% | viability, T/C [21]: 78.8% | viability, T/C [22]: 50.3% | viability, T/C [23]: 33.4% | viability, T/C [24]: 21.7% | viability, T/C [25]: 121% | viability, T/C [26]: 106% | viability, T/C [27]: 72.6% | viability, T/C [28]: 52.2% | viability, T/C [29]: 38% | viability, T/C [30]: 19.6% | viability, T/C [31]: 108% | viability, T/C [32]: 87.5% | viability, T/C [33]: 65.9% | viability, T/C [34]: 56.8% | viability, T/C [35]: 33.6% | viability, T/C [36]: 16.9%
